How the values were obtained:
Assay type in all cases: in vivo
[1] = system: cat fleas; assay: whole plant or invertebrate; settings: 1 ppm in bovine serum sucked through Parafilm at 37° C.; dead fleas after 48 hours; 20 fleas per group; corrected by control group
Procedure: (§1) A test container wherein the living space of fleas was isolated from bovine serum by use of Parafilm™ (obtainable from Aldrich Chemical Co. Ltd.), which is usually used as an artificial skin, was prepared. A compound to be tested was added to the bovine serum in an amount sufficient for its concentration to be 1 ppm, and the fleas were allowed to suck the serum sample through the Parafilm™ at 37° C. Each group consisted of 20 fleas. […] By counting the dead fleas in a control group without a test compound, the mortality was corrected.

[2] = system: cat fleas; assay: Test on insecticidal effect against cat fleas (Test Example 12, serum feeding through Parafilm); settings: 1 ppm in bovine serum, 37° C., after 48 hours, corrected by control group
Procedure: as §1

[3] = system: two-spotted spider mites; assay: Test on miticidal effect against two-spotted spider mites, cowpea leaf dip (Test Example 9); settings: for The death rate of mites (%): cowpea leaf dip, 2 days after treatment; for Death rate of hatchlings (%) / Death rate of mite eggs (%): 7 days after treatment; for Death rate of mite eggs (%): unhatched eggs; for The egg of two-spotted spider mite (7 days after) dead: number of dead eggs of total 20
Procedure: The remainder of the test compound solution was removed and the treated leaf was allowed to stand in a Petri dish containing a sponge covered with a filter paper soaked in water. After the test compound solution on the leaf had dried, eggs of the mites were marked. The leaf was then allowed to stand at 25° C. on the Petri dish without a lid. Two days after treatment with the test compound, the death rate of mites (expressed as a percentage of the total number of mites) was determined. Seven to ten days after the treatment, the “death rate” of the mite eggs (expressed as the percentage of the total number of mite eggs which were unhatched) and the death rate of the hatchlings (expressed as the percentage of the total number of hatchlings which were killed) was estimated. The test was repeated at different concentrations of the test compound. “Untreated” in this test means the control test in which water was used instead of the test compound solution.

## CCC1OC2(CCC1C)CC1CC(CC=C(C)C(OC(=O)C3(c4ccc(NC(=O)CN(C)C(C)=O)cc4)CCCC3)C(C)C=CC=C3COC4C(O)C(C)=CC(C(=O)O1)C34O)O2 (stereo not drawn) [Example 6, 13-{1-[4-(N-Acetyl-N-methylglycylamino)phenyl]cyclopentanecarbonyloxy}-5-hydroxymilbemycin A4]
[1]
  Mortality (%): 79.5%

## CCC1OC2(CCC1C)CC1CC(CC=C(C)C(OC(=O)C3(c4ccc(NC(=O)COC)cc4)CCC3)C(C)C=CC=C3COC4C(O)C(C)=CC(C(=O)O1)C34O)O2 (stereo not drawn) [Example 15, 13-[1-(4-Methoxyacetylaminophenyl)cyclobutanecarbonyloxy]-5-hydroxy-milbemycin A4]
[2]
  Mortality (%): 100%

## CCC1OC2(CCC1C)CC1CC(CC=C(C)C(OC(=O)C3(c4ccc(NC(=O)CC#N)cc4)CCCC3)C(C)C=CC=C3COC4C(O)C(C)=CC(C(=O)O1)C34O)O2 (stereo not drawn) [Example 3, 13-[1-(4-Cyanoacetylaminophenyl)cyclopentanecarbonyloxy]-5-hydroxymilbemycin A4]
[1]
  Mortality (%): 81.4%

## CCC1OC2(CCC1C)CC1CC(CC=C(C)C(OC(=O)C3(c4ccc(NS(C)(=O)=O)cc4)CCCC3)C(C)C=CC=C3COC4C(O)C(C)=CC(C(=O)O1)C34O)O2 (stereo not drawn) [Example 4, 13-[1-(4-Methanesulfonylaminophenyl)cyclopentanecarbonyloxy]-5-hydroxy-milbemycin A4]
[1]
  Mortality (%): 100.0%

## CCC1OC2(CCC1C)CC1CC(CC=C(C)C(OC(=O)C3(c4ccc(NC(=O)CO)cc4)CCCC3)C(C)C=CC=C3COC4C(O)C(C)=CC(C(=O)O1)C34O)O2 (stereo not drawn) [Example 5, 13-[1-(4-Hydroxyacetylaminophenyl)cyclopentanecarbonyloxy]-5-hydroxy-milbemycin A4]
[1]
  Mortality (%): 74.4%

## CC[C@H]1O[C@]2(CC[C@@H]1C)C[C@@H]1C[C@@H](C/C=C(\C)[C@H](OC(=O)C3(c4ccc(NC(=O)COC)cc4)CCCC3)[C@@H](C)/C=C/C=C3\CO[C@@H]4[C@H](O)C(C)=C[C@@H](C(=O)O1)[C@]34O)O2 [Test Compound Solution]
[3]; 0.1 ppm
  The death rate of mites (%): 98.5%
[3]; 0.1 ppm, number of dead mites of total 65
  two-spotted spider mite (2 days after) dead: 64
[3]; 0.1 ppm, number of mites in agony of total 65
  two-spotted spider mite (2 days after) agony: 1
[3]; 1 ppm
  Death rate of hatchlings (%): 30%
  Death rate of mite eggs (%): 0%
  The death rate of mites (%): 100%
  The egg of two-spotted spider mite (7 days after) dead: 0
[3]; 1 ppm, number of dead mites of total 55
  two-spotted spider mite (2 days after) dead: 55
[3]; 10 ppm
  Death rate of hatchlings (%): 100%
  Death rate of mite eggs (%): 25%
  The death rate of mites (%): 100%
  The egg of two-spotted spider mite (7 days after) dead: 5
[3]; 10 ppm, number of dead mites of total 39
  two-spotted spider mite (2 days after) dead: 39
[3]; 100 ppm
  Death rate of hatchlings (%): 100%
  Death rate of mite eggs (%): 90%
  The death rate of mites (%): 100%
  The egg of two-spotted spider mite (7 days after) dead: 18
[3]; 100 ppm, number of dead mites of total 48
  two-spotted spider mite (2 days after) dead: 48

## CCC1OC2(CCC1C)CC1CC(CC=C(C)C(OC(=O)C3(c4ccc(NC(C)=O)cc4)CCCC3)C(C)C=CC=C3COC4C(O)C(C)=CC(C(=O)O1)C34O)O2 (stereo not drawn) [Example 2, 13-[1-(4-Acetylaminophenyl)cyclopentanecarbonyloxy]-5-hydroxymilbemycin A4]
[1]
  Mortality (%): 95.0%

## CCC1OC2(CCC1C)CC1CC(CC=C(C)C(OC(=O)C3(c4ccc(N)cc4)CCCC3)C(C)C=CC=C3COC4C(O)C(C)=CC(C(=O)O1)C34O)O2 (stereo not drawn) [Example 1(b), 13-[1-(4-Aminophenyl)cyclopentanecarbonyloxy]-5-hydroxymilbemycin A4]
[1]
  Mortality (%): 95.0%

## CC1=CC2C(=O)OC3CC(CC=C(C)C(OC(=O)C4(c5ccc(NS(C)(=O)=O)cc5)CCCC4)C(C)C=CC=C4COC(C1O)C42O)OC1(CCC(C)C(C)O1)C3 (stereo not drawn) [Example 9, 13-[1-(4-Methanesulfonylaminophenyl)cyclopentanecarbonyloxy]-5-hydroxy-milbemycin A3]
[1]
  Mortality (%): 83.2%

## COCC(=O)Nc1ccc(C2(C(=O)OC3C(C)=CCC4CC(CC5(CCC(C)C(C)O5)O4)OC(=O)C4C=C(C)C(O)C5OCC(=CC=CC3C)C45O)CCCC2)cc1 (stereo not drawn) [Example 8, 13-[1-(4-Methoxyacetylaminophenyl)cyclopentanecarbonyloxy]-5-hydroxy-milbemycin A3]
[1]
  Mortality (%): 87.6%

Reference: US6653342B2, “13-substituted milbemycin derivatives, their preparation and their use against insects and other pests” (Sankyo Company, Limited, priority 2000, dated 2003)
